Patent US10149852B2, “Use of sodium channel blockers for the treatment of neuropathic pain developing as a consequence of chemotherapy” (priority 2006, dated 2018)
“And” between values parts separate entries of the source, which are not always exact repeats. Equal entries are not always repeated. “Also recorded” adds a separate entry of the source.

What was measured:
[1] = system: Chemotherapy Induced Neuropathic Pain (CINP); set-up: species or system Human Subjects; conditions: in vivo
[2] = set-up: species or system Human Subjects; conditions: in vivo
[3] = system: paclitaxel-induced painful peripheral neuropathy; set-up: species or system CD-1 mice; conditions: mouse, in vivo, sc
[4] = system: paclitaxel-induced cold allodynia
[5] = system: paclitaxel induced orofacial allodynia
[6] = system: paclitaxel induced paw allodynia
[7] = system: paclitaxel induced paw hyperalgesia
[8] = in vivo; cited from earlier work
[9] = system: paclitaxel-induced thermal hyperalgesia
[10] = system: paclitaxel-induced mechanical allodynia
[11] = paclitaxel 2 mg/kg i.p. once daily 5 days
[12] = paclitaxel 1 mg/kg i.p. days 1, 3, 5, 7, rats

In the case of “Octahydro-12-(Hydroxymethyl)-2-imino-5,9,7,10a-dimethano-10aH-[1,3]dioxocino[6,5-d]pyrimidine-4,7,10,11,12-pentol [TTX]”, the “Responders, 30% reduction in average NPRS score from baseline to any 10 consecutive days: No, number of subjects” value [1] is reported as 17 (68.0%) and 14 (58.3%) and 15 (60.0%) and 11 (42.3%), the “Responders, 30% reduction in average NPRS score from baseline to any 10 consecutive days: No, percent” value [1] is reported as 17 (68.0%) and 14 (58.3%) and 15 (60.0%) and 11 (42.3%) and the “Responders, 30% reduction in average NPRS score from baseline to any week: No, number of subjects” value [1] is reported as 16 (64.0%) and 13 (54.2%) and 15 (60.0%) and 11 (42.3%). The “Responders, 30% reduction in average NPRS score from baseline to any week: No, percent” value [1] was 16 (64.0%) and 13 (54.2%) and 15 (60.0%) and 11 (42.3%), the “Responders, 30% reduction in average NPRS score from baseline to any week: Yes, number of subjects” value [1] was 9 (36.0%) and 11 (45.8%) and 10 (40.0%) and 15 (57.7%) and the “Nervous system disorders, number of subjects” value [2] was 13 and 16 and 17 and 20. The “Number of Subjects with at least 1 AE” value [2] was 21 and 22 and 20 and 24, the “Paresthesia, number of subjects” value [2] was 5 and 7 and the “grade 4 AEs” value [2] was “no grade 4 AEs”. For the same compound, the “number of grade 3 AEs” value [2] was “four and seven”, the “number of patients with serious adverse effects (SAEs)” value [2] was “Three” and the “number of subjects with grade 3 AE” value [2] was “Four”. For the same compound, the “relation of the SAEs to TTX” value [2] was “two unrelated and one unlikely related”, the “severity of most AEs” value [2] was “grade 1 or 2; also recorded: mild or moderate” and the “severity of nervous system AEs” value [2] was “grade 1 or 2 save for one event of grade 3 paresthesia”. For the same compound, the “Hypesthesia oral, number of subjects” value ([2]; po) was 5 and 7 and 6 and 10, the “Oral paresthesia (most common AE), number of patients of 125” value ([2]; po) was 37 and the “Oral paresthesia (most common AE), percent” value ([2]; po) was 29.6%. For the same compound, the “dose relation of Oral Paresthesia” value ([2]; po) was “increasing trend in relation to increasing dose”, the “oral hypesthesia, number of patients of 125” value ([2]; po) was 31 and the “oral hypesthesia, percent” value ([2]; po) was 24.8%. For the same compound, the “analgesic effects in the model of neuropathic pain” value [3] was “clear analgesic effects”, the “effect on expression of paclitaxel-induced cold allodynia” value ([4]; mouse, in vivo) was “inhibited the expression” and the “days with statistically significant difference vs paclitaxel+saline, duration of licking/biting” value ([4]; mouse, in vivo, sc) was “days 10 and 14”. The “days with statistically significant difference vs paclitaxel+saline, frequency of licking/biting” value ([4]; mouse, in vivo, sc) was “days 7, 10 and 14”, the “effect on development of paclitaxel-induced cold allodynia (two variables)” value ([4]; mouse, in vivo, sc) was “did not significantly affect” and the “effect significantly different from saline, frequency of licking/biting” value ([4]; mouse, in vivo, sc) was “only in the animals treated with TTX 6 μg/kg”. For the same compound, the “time after injection with effect significantly different from saline, duration of licking/biting” value ([4]; mouse, in vivo, sc) was 1 h, the “effect of a single dose on allodynia in the trigeminal territory” value ([5]; rat, in vivo, sc) was “partial but significant decrease” and the “prevention of development of allodynia in the orofacial region” value ([5]; rat, in vivo, sc) was “able to prevent the development”. The “effect of a single dose on allodynia in the sciatic territory” value ([6]; rat, in vivo, sc) was “partial but significant decrease”, the “prevention of development of allodynia in the paw” value ([6]; rat, in vivo, sc) was “able to prevent the development” and the “effect of a single dose on paw hyperalgesia” value ([7]; rat, in vivo, sc) was “did not significantly reduce”. For the same compound, the “prevention of development of hyperalgesia in the paw” value ([7]; rat, in vivo, sc) was “able to prevent the development” and the “safety profile of the doses” value [8] was “acceptable safety profile”.
For CC(=O)O[C@H]1C(=O)[C@@]2(C)[C@H]([C@H](OC(=O)c3ccccc3)[C@]3(O)C[C@H](OC(=O)[C@H](O)[C@@H](NC(=O)c4ccccc4)c4ccccc4)C(C)=C1C3(C)C)[C@]1(OC(C)=O)CO[C@@H]1C[C@@H]2O [paclitaxel, Paclitaxel, reference compound], the “time of maximal thermal hyperalgesia after the first injection” value [9, 11] was 7 days, the “paw withdrawal latency in the plantar test vs pre-treatment day” value ([9]; paclitaxel 2 mg/kg i.p. once daily 5 days, all post-treatment days) was “significantly reduced” and the “animals that did not develop thermal hyperalgesia on day 7” value ([9]; paclitaxel-treated mice) was “Around 9%”. The “animals with increased time licking/biting (paclitaxel-responder animals)” value [4, 11] was 67%, the “time of maximal cold allodynia after the first injection” value [4, 11] was 10 to 14 days and the “induction of mechanical allodynia (threshold force, Von Frey test)” value ([10]; paclitaxel 2 mg/kg i.p. during 5 days, day 10) was “induced mechanical allodynia”. For the same compound, the “animals showing a reduction of the mechanical threshold” value ([10]; paclitaxel-treated mice) was 96%, the “mechanical threshold (orofacial) vs vehicle-treated group” value [5, 12] was “significantly reduced” and the “mechanical threshold (paw) vs vehicle-treated group” value [6, 12] was “significantly reduced”. The “thermal latency vs vehicle-treated group” value [7, 12] was “significantly reduced”.
